Test results reported in patent publication US20240327364A1, “THERAPEUTIC TARGETING OF GPR68 TO INDUCE FERROPTOSIS” (University Of Maryland, Baltimore, priority 2023, published 2024).

What was measured:
JNK1 = target: T1, JNK1 (Homo sapiens, UniProt P45983); assay: KinomeScan; type: binding; settings: read-out: % Control
T1 construct: purchased DiscoveRx

FGFR3 = target: T2, FGFR3 (Homo sapiens, UniProt P22607); assay: KinomeScan; type: binding; settings: read-out: % Control
T2 construct: purchased DiscoveRx (Fremont, CA)

RIOK1 = target: T3, RIOK1 (Homo sapiens, UniProt Q9BRS2); assay: KinomeScan; type: binding; settings: read-out: % Control
T3 construct: purchased DiscoveRx (Fremont, CA)

PRKCQ = target: T4, PRKCQ (Homo sapiens, UniProt Q04759); assay: KinomeScan; type: binding; settings: read-out: % Control
T4 construct: purchased DiscoveRx (Fremont, CA)

Y4 = target: T5, Y4 (Homo sapiens, UniProt P50391); assay: GPCR Profiler; type: cell-based
T5 construct: host or cells: Chem-1 cells expressing Galpha15
T5 sequence (P50391 whole entry): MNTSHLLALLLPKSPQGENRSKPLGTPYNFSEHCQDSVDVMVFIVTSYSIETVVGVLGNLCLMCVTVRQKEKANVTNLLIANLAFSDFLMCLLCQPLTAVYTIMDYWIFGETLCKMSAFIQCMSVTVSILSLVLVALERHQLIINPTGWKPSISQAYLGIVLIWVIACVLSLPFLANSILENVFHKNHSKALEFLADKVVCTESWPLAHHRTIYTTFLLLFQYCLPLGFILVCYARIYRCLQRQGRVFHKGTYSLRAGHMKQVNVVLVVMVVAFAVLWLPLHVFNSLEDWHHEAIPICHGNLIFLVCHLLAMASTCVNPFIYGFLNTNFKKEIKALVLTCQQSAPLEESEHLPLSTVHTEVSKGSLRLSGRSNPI

[1] = target: T6, EGFR(L747-S752del, P753S) (Homo sapiens, UniProt P00533, DEL747-752/P753S); assay: KinomeScan; type: binding; settings: read-out: % Control
T6 construct: purchased DiscoveRx (Fremont, CA), KinomeScan service
T6 sequence (P00533 with tags, fused parts or gaps DEL747-752/P753S): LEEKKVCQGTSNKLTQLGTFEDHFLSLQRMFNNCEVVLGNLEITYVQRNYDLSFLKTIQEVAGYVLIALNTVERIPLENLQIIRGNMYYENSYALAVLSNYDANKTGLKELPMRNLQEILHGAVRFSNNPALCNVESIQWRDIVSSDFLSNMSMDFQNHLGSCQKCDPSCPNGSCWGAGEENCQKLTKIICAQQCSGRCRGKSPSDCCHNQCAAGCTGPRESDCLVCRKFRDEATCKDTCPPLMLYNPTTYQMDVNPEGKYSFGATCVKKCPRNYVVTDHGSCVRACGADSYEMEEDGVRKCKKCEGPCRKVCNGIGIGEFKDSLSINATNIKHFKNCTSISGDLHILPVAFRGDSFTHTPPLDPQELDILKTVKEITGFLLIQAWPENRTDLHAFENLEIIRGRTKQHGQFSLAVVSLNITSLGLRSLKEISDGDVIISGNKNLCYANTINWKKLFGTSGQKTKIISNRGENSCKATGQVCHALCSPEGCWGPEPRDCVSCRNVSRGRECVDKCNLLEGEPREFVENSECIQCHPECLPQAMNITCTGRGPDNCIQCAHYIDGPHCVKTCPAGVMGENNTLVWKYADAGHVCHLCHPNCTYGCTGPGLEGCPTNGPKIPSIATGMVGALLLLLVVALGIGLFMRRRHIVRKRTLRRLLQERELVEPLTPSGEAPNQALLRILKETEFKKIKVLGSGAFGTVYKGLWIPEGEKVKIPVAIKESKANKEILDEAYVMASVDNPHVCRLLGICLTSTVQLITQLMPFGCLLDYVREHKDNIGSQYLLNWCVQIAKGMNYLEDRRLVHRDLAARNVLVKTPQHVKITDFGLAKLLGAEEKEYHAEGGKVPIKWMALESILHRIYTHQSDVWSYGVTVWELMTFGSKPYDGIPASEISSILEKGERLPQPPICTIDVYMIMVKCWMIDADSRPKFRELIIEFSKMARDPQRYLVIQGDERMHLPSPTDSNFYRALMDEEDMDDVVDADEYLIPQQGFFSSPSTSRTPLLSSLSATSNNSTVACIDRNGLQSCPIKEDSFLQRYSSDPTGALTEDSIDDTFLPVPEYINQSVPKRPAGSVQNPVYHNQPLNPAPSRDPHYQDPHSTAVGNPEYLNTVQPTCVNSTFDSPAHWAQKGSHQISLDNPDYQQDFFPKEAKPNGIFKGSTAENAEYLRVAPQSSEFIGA

MKNK2 = target: T7, MKNK2 (Homo sapiens, UniProt Q9HBH9); assay: KinomeScan; type: binding; settings: read-out: % Control
T7 construct: purchased DiscoveRx

TIE1 = target: T8, TIE1 (Homo sapiens, UniProt P35590); assay: KinomeScan; type: binding; settings: read-out: % Control
T8 construct: purchased DiscoveRx (Fremont, CA)

DYRK1B = target: T9, DYRK1B (Homo sapiens, UniProt Q9Y463); assay: KinomeScan; type: binding; settings: read-out: % Control
T9 construct: purchased DiscoveRx (Fremont, CA), KinomeScan service

PTH2 = target: T10, PTH2 (Homo sapiens, UniProt P49190); assay: GPCR Profiler; type: cell-based
T10 construct: host or cells: Chem-1 cells with Gα15
T10 sequence (P49190 25-550): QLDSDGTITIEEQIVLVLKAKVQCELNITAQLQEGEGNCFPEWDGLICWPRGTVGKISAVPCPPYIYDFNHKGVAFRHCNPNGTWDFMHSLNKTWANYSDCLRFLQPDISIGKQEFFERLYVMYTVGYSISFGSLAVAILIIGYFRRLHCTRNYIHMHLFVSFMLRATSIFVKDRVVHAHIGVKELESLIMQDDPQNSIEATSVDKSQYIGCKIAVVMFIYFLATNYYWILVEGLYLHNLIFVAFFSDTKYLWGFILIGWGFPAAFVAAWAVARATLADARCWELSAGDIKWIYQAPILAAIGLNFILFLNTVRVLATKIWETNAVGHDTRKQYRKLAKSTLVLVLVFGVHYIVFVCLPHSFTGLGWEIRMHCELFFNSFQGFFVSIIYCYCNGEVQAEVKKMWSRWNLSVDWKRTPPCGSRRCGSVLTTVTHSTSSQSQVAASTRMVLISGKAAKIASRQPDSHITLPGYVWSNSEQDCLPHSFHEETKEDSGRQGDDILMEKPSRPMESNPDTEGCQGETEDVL

PRKD2 = target: T11, PRKD2 (Homo sapiens, UniProt Q9BZL6); assay: KinomeScan; type: binding; settings: read-out: % Control
T11 construct: purchased DiscoveRx (Fremont, CA)

AXL = target: T12, AXL (Homo sapiens, UniProt P30530); assay: KinomeScan; type: binding; settings: read-out: % Control
T12 construct: purchased DiscoveRx (Fremont, CA)

HIPK1 = target: T13, HIPK1 (Homo sapiens, UniProt Q86Z02); assay: KinomeScan; type: binding; settings: read-out: % Control
T13 construct: purchased DiscoveRx (Fremont, CA)

TIE2 = target: T14, TIE2 (Homo sapiens, UniProt Q02763); assay: KinomeScan; type: binding; settings: read-out: % Control
T14 construct: purchased DiscoveRx (Fremont, CA)
T14 sequence (Q02763 23-1124): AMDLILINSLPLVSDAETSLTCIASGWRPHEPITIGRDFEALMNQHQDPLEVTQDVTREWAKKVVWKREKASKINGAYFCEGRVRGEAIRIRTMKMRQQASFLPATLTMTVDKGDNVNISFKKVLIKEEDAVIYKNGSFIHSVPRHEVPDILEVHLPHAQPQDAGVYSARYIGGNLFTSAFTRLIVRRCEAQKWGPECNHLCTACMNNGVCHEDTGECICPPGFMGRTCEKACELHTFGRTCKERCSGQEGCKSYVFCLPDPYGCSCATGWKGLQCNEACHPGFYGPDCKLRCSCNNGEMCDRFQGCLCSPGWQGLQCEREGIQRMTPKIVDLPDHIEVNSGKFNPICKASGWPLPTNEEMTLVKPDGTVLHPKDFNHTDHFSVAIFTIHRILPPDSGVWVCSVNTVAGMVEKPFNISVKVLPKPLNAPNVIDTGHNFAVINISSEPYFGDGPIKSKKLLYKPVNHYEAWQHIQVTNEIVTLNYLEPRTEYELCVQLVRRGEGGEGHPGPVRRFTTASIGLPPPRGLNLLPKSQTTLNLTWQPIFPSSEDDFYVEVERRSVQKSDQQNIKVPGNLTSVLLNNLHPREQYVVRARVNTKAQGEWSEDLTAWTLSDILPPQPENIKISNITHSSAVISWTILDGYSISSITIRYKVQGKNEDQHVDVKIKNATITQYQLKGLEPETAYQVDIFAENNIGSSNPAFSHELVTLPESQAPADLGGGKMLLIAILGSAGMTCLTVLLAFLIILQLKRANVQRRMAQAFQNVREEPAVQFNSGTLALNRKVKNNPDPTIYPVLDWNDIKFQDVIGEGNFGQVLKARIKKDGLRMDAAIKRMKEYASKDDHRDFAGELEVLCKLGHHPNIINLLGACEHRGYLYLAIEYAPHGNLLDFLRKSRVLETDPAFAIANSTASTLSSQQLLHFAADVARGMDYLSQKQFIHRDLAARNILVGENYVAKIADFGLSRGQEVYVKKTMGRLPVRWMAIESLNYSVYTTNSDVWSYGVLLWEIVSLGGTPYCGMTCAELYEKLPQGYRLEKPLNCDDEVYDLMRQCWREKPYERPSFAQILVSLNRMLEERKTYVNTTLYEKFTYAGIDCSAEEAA

STK39 = target: T15, STK39 (Homo sapiens, UniProt Q9UEW8); assay: KinomeScan; type: binding; settings: read-out: % Control
T15 construct: purchased DiscoveRx (Fremont, CA)

[2] = target: T16, ABL1(M351T)-phosphorylated (Homo sapiens, UniProt P00519, M351T); assay: KinomeScan; type: binding; settings: read-out: % Control
T16 construct: purchased DiscoveRx

S1P4 = target: T17, S1P4 (Homo sapiens, UniProt O95977); assay: GPCR Profiler; type: cell-based
T17 construct: host or cells: Chem-1 cells with Gα15
T17 sequence (O95977 whole entry, species assumed): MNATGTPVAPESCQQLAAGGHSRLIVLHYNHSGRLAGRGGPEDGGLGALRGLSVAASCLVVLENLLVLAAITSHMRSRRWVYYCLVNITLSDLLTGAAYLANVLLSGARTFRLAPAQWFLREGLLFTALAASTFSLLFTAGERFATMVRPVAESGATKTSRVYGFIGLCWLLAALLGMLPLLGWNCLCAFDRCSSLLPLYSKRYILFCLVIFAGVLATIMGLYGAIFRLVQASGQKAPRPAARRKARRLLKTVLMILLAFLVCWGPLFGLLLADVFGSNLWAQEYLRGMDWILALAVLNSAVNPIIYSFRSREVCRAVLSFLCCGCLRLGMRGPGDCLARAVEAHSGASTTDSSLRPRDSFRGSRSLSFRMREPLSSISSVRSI

CXCR4 = target: T18, CXCR4 (Homo sapiens, UniProt P61073); assay: GPCR Profiler; type: cell-based
T18 construct: host or cells: Chem-1 cells with Gα15
T18 sequence (P61073 whole entry, species assumed): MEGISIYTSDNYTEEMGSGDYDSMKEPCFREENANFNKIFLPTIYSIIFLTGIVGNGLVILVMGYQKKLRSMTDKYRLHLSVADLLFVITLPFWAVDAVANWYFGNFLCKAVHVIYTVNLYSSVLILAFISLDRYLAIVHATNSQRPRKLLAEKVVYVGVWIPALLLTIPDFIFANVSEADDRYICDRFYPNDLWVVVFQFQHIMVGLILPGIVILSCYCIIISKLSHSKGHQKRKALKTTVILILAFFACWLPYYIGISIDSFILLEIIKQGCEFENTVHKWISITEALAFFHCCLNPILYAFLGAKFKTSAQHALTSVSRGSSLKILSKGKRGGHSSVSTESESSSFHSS

MARK1 = target: T19, MARK1 (Homo sapiens, UniProt Q9P0L2); assay: KinomeScan; type: binding; settings: read-out: % Control
T19 construct: purchased DiscoveRx (Fremont, CA)

MST3 = target: T20, MST3 (Homo sapiens, UniProt Q9Y6E0); assay: KinomeScan; type: binding; settings: read-out: % Control
T20 construct: purchased DiscoveRx
T20 sequence (Q9Y6E0 whole entry): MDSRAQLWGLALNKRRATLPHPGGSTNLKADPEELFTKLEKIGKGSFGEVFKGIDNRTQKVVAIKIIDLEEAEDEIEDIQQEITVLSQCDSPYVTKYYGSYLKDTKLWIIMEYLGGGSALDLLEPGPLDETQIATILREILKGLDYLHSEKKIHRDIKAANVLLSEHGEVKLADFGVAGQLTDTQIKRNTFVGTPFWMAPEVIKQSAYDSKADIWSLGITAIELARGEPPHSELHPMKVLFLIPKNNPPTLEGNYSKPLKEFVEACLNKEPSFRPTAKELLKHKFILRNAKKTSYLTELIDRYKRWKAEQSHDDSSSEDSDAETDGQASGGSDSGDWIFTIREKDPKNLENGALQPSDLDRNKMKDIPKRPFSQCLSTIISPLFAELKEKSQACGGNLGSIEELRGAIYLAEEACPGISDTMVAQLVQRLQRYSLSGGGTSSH

TP = target: T21, TP (Homo sapiens, UniProt P21731); assay: GPCR Profiler; type: cell-based
T21 construct: host or cells: Chem-1 cells with Gα15
T21 sequence (P21731 whole entry): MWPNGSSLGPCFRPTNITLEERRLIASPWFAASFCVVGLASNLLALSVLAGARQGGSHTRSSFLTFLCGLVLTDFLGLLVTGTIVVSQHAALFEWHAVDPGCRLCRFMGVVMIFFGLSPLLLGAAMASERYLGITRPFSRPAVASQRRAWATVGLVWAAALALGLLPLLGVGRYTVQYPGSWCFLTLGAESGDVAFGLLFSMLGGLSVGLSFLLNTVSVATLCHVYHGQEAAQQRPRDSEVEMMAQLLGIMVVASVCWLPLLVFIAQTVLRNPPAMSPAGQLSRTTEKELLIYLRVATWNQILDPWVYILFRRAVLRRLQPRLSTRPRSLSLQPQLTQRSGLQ

EGFR(L858R) = target: T22, EGFR(L858R) (Homo sapiens, UniProt P00533, L858R); assay: KinomeScan; type: binding; settings: read-out: % Control
T22 construct: purchased DiscoveRx (Fremont, CA), KinomeScan service

PIK3CA(E545K) = target: T23, PIK3CA(E545K) (Homo sapiens, UniProt P42336, E545K); assay: KinomeScan; type: binding; settings: read-out: % Control
T23 construct: purchased DiscoveRx (Fremont, CA)

TLK2 = target: T24, TLK2 (Homo sapiens, UniProt Q86UE8); assay: KinomeScan; type: binding; settings: read-out: % Control
T24 construct: purchased DiscoveRx (Fremont, CA)

PANC02 = assay: Scratch migration; type: cell-based; settings: 10 μM OGM2, 24 hours
Description: In a second study. PANC02 pancreatic cells plated and grown to confluence. Using a P200 tip, cells were denuded and allowed to migrate for 24 hours in DMSO or 10 μM OGM2 and imaged.

U87 = assay: 2D cell growth/viability; type: cell-based, human; settings: 72 hours
Description: GBM neurospheres and low passage PDX models were plated in 96-well plates at 10,000 cells per well in 50 μL of neural stem cell media. The next day, the cells were treated with OGM2 compounds at the indicated concentrations, in triplicates, by adding an equal volume of medium containing 2× the final concentration of compound. Following 72 hours incubation under standard cell culture conditions, relative cell number was assessed using Cell Titer-Glo Luminescent Cell Viability Assay (Promega™) following the manufacturer's instructions. Luminescence was determined using a Cytation 5 reader and Gen5 software package (BioTek™). For U87 and U138 cell lines, one thousand cells were plated per well in a standard 96-well plate and allowed to attach for 24 hours before exposure to concentrations of vehicle, OGM2, or TMZ. Cells were treated for 72 hours and then stained with DAPI. A 10× magnification lens on a LionheartFX (BioTek™) was used to image the wells, and images were stitched together with Gen5 software (BioTek™). Automated nuclei counting was also done using the Gen5 software. Results reported as percent response relative to DMSO control. IC50 (the concentration causing 50% inhibition) was determined by GraphPad Prism™ version 6.07.
Temozolomide is the standard of care for glioblastoma but only works on 30% of patients. […]

[3] = system: U87 glioblastoma spheroids; assay: Matrigel matrix invasion of spheroids; type: cell-based
Source text: U87 glioblastoma spheroids were formed in low attachment round bottom plates for 3 days. Spheroids were then covered in Matrigel™, which was allowed to polymerize before treatment with acidified media with or without OGM2. Acidification increased the degree of matrix invasion which is attenuated by OGM2.

## CCc1ccc2c(c1)C1(NN=C(c3cccc4ccccc34)S1)C(=O)N2 (centres unmarked) [OGM1, 5-ethyl-5′-naphthalen-1-ylspiro[1H-indole-3,2′-3H-1,3,4-thiadiazole]-2-one]
JNK1
  remaining binding at 10 µM: 63%
FGFR3
  remaining binding at 10 µM: 100%
RIOK1
  remaining binding at 10 µM: 100%
PRKCQ
  remaining binding at 10 µM: 99%
Y4; 10 uM
  Antagonism: −5.5
Y4; 12.5 uM
  Agonism: −0.2
[1]
  remaining binding at 10 µM: 99%
MKNK2
  remaining binding at 10 µM: 91%
TIE1
  remaining binding at 10 µM: 94%
DYRK1B
  remaining binding at 10 µM: 58%
PTH2; 10 uM
  Antagonism: −19.2
PTH2; 12.5 uM
  Agonism: 1.1
PRKD2
  remaining binding at 10 µM: 87%
AXL
  remaining binding at 10 µM: 100%
HIPK1
  remaining binding at 10 µM: 99%
TIE2
  remaining binding at 10 µM: 100%
STK39
  remaining binding at 10 µM: 59%
[2]
  remaining binding at 10 µM: 84%
S1P4; 10 uM
  Antagonism: −5.2
S1P4; 12.5 uM
  Agonism: 0.3
CXCR4; 10 uM
  Antagonism: −6.9
CXCR4; 12.5 uM
  Agonism: 1.5
MARK1
  remaining binding at 10 µM: 100%
MST3
  remaining binding at 10 µM: 61%
TP; 10 uM
  Antagonism: 8.1
TP; 12.5 uM
  Agonism: 0.2
EGFR(L858R)
  remaining binding at 10 µM: 100%
PIK3CA(E545K)
  remaining binding at 10 µM: 100%
TLK2
  remaining binding at 10 µM: 71%

## CCc1ccc2c(c1)C1(NN=C(c3ccccc3)S1)C(=O)N2 (centres unmarked) [OGM2]
PANC02
  migration: significantly reduced migration
U87
  cell growth, comparison with Temozolomide: more potent inhibitor of U87 cell growth in 2D cell assay than Temozolomide
[3]
  acidification-increased matrix invasion: attenuated
